Results on 1 molecule are retold here after patent EP0231151A2, “Immunosuppressant agents” (priority 1986, dated 1987).

Read-outs that look alike come from different tables or passages of the source.

In series [1] the test system is splenic lymphocytes forming lytic antibodies to the SRBC. As to the kind of experiment: Antibody producing cell development in the mouse (PFC test), plaque forming cells to SRBC. The note with it: for percent change from control at 1 mg/kg/day: Mus musculus, Splenic lymphocyte, sc, 144 h, Test A, 1.0 mg/kg/day s.c., 6 days. In kind it is in vivo. The procedure:
These methods permit the quantitation of the number of splenic lymphocytes forming lytic antibodies to the SRBC and the distinction between IgM and IgG producing cells.
The intravenous injection of SRBC (5 x 10⁷) in 0.2 ml i.v. served as the primary immunization antigen source in the mouse studies. The mice in these studies were female C57 black of ca 20 grams body weight. All animals were pretreated with the respective compounds for one day prior to the SRBC treatment and daily treated thereafter at 11.00 h for a total of 6 days. The spleens were removed for the determination of PFC numbers to the SRBC antigen.
The spleen cells were suspended in Hepes-buffered Balanced Salt Solution (HBSS), washed once, and resuspended in a volume adjusted according to the expected number of plaque forming cells. The direct quantitiation of IgM-PFC was performed by plaquing 0.1 ml of the diluted splenic cells with 0.025 ml of SRBC (30%), 0.3 ml Agar (0.5% in HBSS), and 0.025 ml complement (guinea pig serum) and plated on Petri dishes. An indirect method of IgG-PFC quantitation was performed with a monoclonal antibody to the IgM (1:4 dilution) plus an anti-gama polyspecific antiserum (1:800) to permit complement fixation. The splenic lymphocytes from each mouse spleen were plated to quantitate IgM- and IgG-PFC in duplicate. All plates were incubated for 4 hours at 37°C and then stored overnight in humidified chambers at 4°C. Plaques were counted by hand with the use of a plaque counter.

Series [2] has as its system Local graft versus host (GvH). The series is described as follows: Local graft versus host (GvH) reaction in the rat, lymph node weight. In kind it is in vivo. The note with it: 0.01 mg/kg/day. The procedure:
Spleen cells (ca 1 x 10⁷) are taken from 6 week old Wistar/Furth/(W/F) rats and are injected into the left hind paw of female (F 344 x WF) F1 rats weighing about 100 g. The rats had been treated daily with the compound from 7 days before the injection and are treated daily for 3 days thereafter. The difference in weight between the left and right lymph nodes is taken as the parameter for evaluating the reaction.

Series [3] in a line: No toxic effect level (NTEL), repeated oral dosing in rats. Conditions: rat, in vivo, 4 weeks, p.o. The source says: (§1) Toxicity data for some of the comounds of the invention have been published. Such data may be determined by routine experimentation. TOXICITY DATA for representative compounds NTEL = No toxic effect level.
For series [4], the system named is basal serum prolactin levels. As to the kind of experiment: Lowering basal serum prolactin levels in the male rat (prolactin secretion inhibition). The note with it: lowering basal serum prolactin levels, male rat, after 4 hours; read-out: ID50 after 4 hours. In kind it is in vivo. The source says: Many of the above mentioned compounds are published as prolactin secretion inhibitors, some of which are extremely potent and have long lasting activity. The potency of the compounds as prolactin secretion inhibitors can be determined in standard tests, e.g. by lowering basal serum prolactin levels in the male rat.
Results with representative compounds include:-

Series [5] is described as follows: Acute toxicity (LD50) in the mouse. Conditions: in vivo.
Excerpt: as §1

Series [6] has as its system grafted neonatal heart tissue. As to the kind of experiment: Grafting of neonatal heart tissue into ears of mice, graft survival with co-administered cyclosporine. The note with it: 0.05 mg/kg/day s.c. with cyclosporine 18 mg/kg/day s.c.; group of 10 animals. In kind it is in vivo, mouse. The source says:
In this in-vivo test the rejection time of grafted neonatal heart tissue was increased by the compounds of the invention.
In one method a small incision was made at the base of the ear of a C 57 BL mouse (H-2^b). Blunt or fine tweezers were used to loosen the dorsal layer of skin from the cartilaginous layer in order to form a pocket. One half of a heart taken from 1 to 2 day old Balb/c mouse (H-2^d) was then inserted in the pocket. At 6 days post grafting and every week thereafter, the heart graft survival was monitored with microelectrodes placed on each side of the graft. A dynograft recorded was used to record electrical activity emanating from the graft. The end point of graft survival was taken as the time when the electrical activity was lost. Untreated mice rejected the implant after 8 1/2 days.
In this model effective immunosuppression was considered to have occurred if the time to rejection was increased to at least 17 days. […] With the compound A at 0.05 mg/kg/day, s.c.), 50 per cent of the heart allografts in a group of 10 animals were active on day 17.

The mark [7] stands for this setting: combination: 36 mg/kg/day s.c. of Cyclosporine with 0.1 mg/kg/day of compound A.

In general, NOAEL refers to the highest tested level that showed no adverse finding. On to `CCCN1CC(NS(=O)(=O)N(CC)CC)CC2Cc3c(O)cccc3CC21` (centres unmarked) [Compound A], for which the results for the percent change from control at 1 mg/kg/day in series [1] (read-out: IgG % of control) and in series [1] (read-out: IgM % of control) were -71.6% and -55.4%, respectively. The “reduction of IgG titre” value in series [1] (setting [7]) is on record as 79.1%. In series [1] (setting [7]), the “reduction of IgM titre” value came to 62.6%. In addition, the Weight lymph node entry in series [2] (control ca 63 mg) is given as “ca 50 mg”. Besides, the “Percentage Difference” value in series [2] (versus control ca 63 mg) is reported as -21%. Moreover, the NOAEL at 672 h in series [3] fell in the range of 0.2 to 0.57 mg/kg/day. For the same molecule, in series [4], the ED50 came to 0.03 mg/kg. In series [5] (iv, over 7 days, read-out: acute LD₅₀ (mouse) i.v.), the LD50 at 168 h was 17 mg/kg. The LD50 at 336 h in series [5] (po, over 14 days, read-out: acute LD₅₀ (mouse) p.o.) was found to be 357 mg/kg. Further, the “heart allografts active on day 17” value in series [6] worked out at 50 per cent.
